# Measured values published in patent EP2815749A1, “Solid form of 4-amino-2-(2,6-dioxopiperidine-3-yl)isoindoline-1,3-dione having specified X-ray diffraction pattern” (IP Gesellschaft für Management mbH, priority 2013, dated 2014).
# Assays:
# [1] = Polymorph screening: solvent evaporation; type: physicochemical; conditions: form obtained
# Experimental: (§1) Polymorph screening: A polymorph screen was conducted in the methylethyl ketone (MEK)/ water solvent systems, as well as in the acetonitrile (ACN), ACN/water and isopropyl acetate solvent systems. Polymorph screening techniques included crash cooling, solvent evaporation, antisolvent addition, and slurry experiments. Slurry experiments were performed on an IKA RCT hot plate with magnetic stirring set to 710 rpm. The temperature was controlled with an IKA ETS-D5 thermocouple. Solvent volumes were measured and transferred with Gibson Pipetteman volumetric pipettes. New forms that were identified as solvates were subjected to desolvation under two potential conditions: (1) drying in a vacuum oven at 40°C and (2) sitting undisturbed under ambient conditions in a fume hood. Physical characterization of all forms proceeded by X-ray powder diffraction (XRPD) and thermogravimetric analysis (TGA).
# A saturated solution was made by slurrying Compound (VII), Form XX in 5 mL of solvent (ACN, isopropyl acetate (IP Ac), or MEK) or 1 mL of solvent for the MEK/Water solvent system. After 24 hours, the residual solids were removed by filtration. The saturated solutions were then subjected to rapid solvent evaporation by blowing nitrogen (N2) gas over the samples with a Pierce Model 18780 Reacti-Vap evaporating unit for four hours. The product precipitated as a white powder and the form was analyzed by XRPD and TGA.
# [2] = Polymorph screening: antisolvent addition; type: physicochemical; conditions: form obtained
# Experimental: as §1
# Experiment 3: Antisolvent Addition: A saturated solution of Compound (VII), Form XX was made by slurrying either in 5 mL of solvent in the ACN, IP Ac, and MEK solvent systems, 2 mL total solvent for IP Ac/water, or 1 mL total solvent for the MEK/water solvent systems. After 24 hours, the residual solids were removed by filtration 20 mL of antisolvent was then quickly added to the saturated solutions to induce precipitation. Hexane was used as the antisolvent in the MEK and IP Ac solvent systems, and MTBE was used as the antisolvent in the ACN solvent systems, as a consequence of the immiscibility between ACN and hexane. The product precipitated as a white powder and the form was analyzed by XRPD and TGA. Table 9.
# AF508-CFTR = molecular target: T1, AF508-CFTR (Homo sapiens, UniProt P13569, DEL508-508); assay: Membrane potential optical assay for potentiation (FLIPR III); type: cell-based; conditions: relative efficacy
# T1 construct: expressed in transfected cells
# T1 sequence (P13569 with tags, fused parts or gaps DEL508-508): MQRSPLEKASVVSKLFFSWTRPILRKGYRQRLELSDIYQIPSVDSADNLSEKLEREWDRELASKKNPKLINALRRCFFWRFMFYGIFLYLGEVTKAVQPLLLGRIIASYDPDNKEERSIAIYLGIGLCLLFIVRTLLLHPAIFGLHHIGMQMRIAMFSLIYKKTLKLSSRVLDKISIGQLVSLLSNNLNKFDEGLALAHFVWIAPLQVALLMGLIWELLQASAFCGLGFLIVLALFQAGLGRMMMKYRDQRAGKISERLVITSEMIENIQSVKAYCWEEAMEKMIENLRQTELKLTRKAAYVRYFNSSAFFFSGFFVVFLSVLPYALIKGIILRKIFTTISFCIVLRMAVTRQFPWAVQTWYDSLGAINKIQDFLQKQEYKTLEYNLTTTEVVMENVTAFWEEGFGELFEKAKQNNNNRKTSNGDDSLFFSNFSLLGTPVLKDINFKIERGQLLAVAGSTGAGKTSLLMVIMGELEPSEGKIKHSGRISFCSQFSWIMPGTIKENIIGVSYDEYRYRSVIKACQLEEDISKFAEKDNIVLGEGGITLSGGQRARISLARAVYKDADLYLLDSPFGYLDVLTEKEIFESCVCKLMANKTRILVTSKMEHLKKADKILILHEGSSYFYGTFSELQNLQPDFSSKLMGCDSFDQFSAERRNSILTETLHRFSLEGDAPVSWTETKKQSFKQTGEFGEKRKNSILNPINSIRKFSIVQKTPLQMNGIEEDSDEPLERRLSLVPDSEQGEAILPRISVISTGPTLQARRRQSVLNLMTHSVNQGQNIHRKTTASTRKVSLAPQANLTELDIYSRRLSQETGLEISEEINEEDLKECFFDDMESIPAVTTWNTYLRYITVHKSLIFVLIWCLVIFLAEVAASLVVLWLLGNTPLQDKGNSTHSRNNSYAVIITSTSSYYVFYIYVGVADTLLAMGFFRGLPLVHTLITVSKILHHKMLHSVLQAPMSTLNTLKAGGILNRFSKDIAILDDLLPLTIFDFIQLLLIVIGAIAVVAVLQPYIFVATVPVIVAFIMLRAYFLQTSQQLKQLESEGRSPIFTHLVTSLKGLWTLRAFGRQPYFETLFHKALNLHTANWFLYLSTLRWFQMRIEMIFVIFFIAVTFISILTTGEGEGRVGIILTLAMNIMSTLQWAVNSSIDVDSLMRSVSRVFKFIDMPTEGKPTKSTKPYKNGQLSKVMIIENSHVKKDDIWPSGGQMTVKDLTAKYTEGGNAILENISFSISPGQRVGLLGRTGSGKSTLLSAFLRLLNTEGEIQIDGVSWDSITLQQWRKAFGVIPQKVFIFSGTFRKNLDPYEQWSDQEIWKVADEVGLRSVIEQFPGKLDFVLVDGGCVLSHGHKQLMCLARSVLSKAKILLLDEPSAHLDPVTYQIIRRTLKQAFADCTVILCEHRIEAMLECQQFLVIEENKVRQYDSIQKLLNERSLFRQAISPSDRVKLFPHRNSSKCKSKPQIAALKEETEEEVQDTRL
# Text: SINGLE CRYSTAL […] OF FORM T: Single crystal analysis was done on a crystal of Form T ({drug7r}) as described above. […] The driving force for the response is the creation of a chloride ion gradient in conjunction with channel activation by a single liquid addition step after the cells have previously been treated with compounds and subsequently loaded with a voltage sensing dye. Identification of Potentiator Compounds: To identify potentiators of AF508-CFTR, a double-addition HTS assay format was developed. […] The driving force for the response is a CI" ion gradient in conjunction with channel activation with forskolin in a single liquid addition step using a fluorescent plate reader such as FLIPR III after the cells have previously been treated with potentiator compounds (or DMSO vehicle control) and subsequently loaded with a redistribution dye. […] HBE grown on Costar® Snapwell™ cell culture inserts were mounted in an Using chamber (Physiologic Instruments, Inc., San Diego, CA), and the transepithelial resistance and short-circuit current in the presence of a basolateral to apical CI" gradient (Isc) were measured using a voltage-clamp system (Department of Bioengineering, University of Iowa, IA). […]
# [3] = Polymorph screening: crash cooling; type: physicochemical
# Experimental: as §1
# Experiment 1: Crash Cooling: A saturated solution of Compound (VII), Form XX was made by preparing 1 mL slurries using acetonitrile (ACN), ACN- water (75:25), methylethyl ketone (MEK), or MEK-water (99:1, 90:10, or 80:20) in vials. After 24 hours in capped HPLC vials, the slurries were then filtered to remove residual solids. Approximately 2 additional milligrams of Compound (VII) was added to each vial containing a saturated solution. Next, the vials were heated to 70°C with stirring until all of the material was completely dissolved. Immediately after, the samples were submerged into an ice bath. The product, which precipitated as a white powder within 1 minute, was isolated by filtration and analyzed by XRPD and TGA.
# [4] = Stability of pomalidomide Form A; type: physicochemical
# Experimental: (§2) Hygroscopicity: Dynamic vapor sorption (DVS) analysis was carried out for two preparations of Form A using Surface Measurement Systems DVS. Representative DVS isotherm plots are presented in Figure 23 of WO2013/126326 and Figure 24 of WO2013/126326. In one study, the moisture uptake was less than about 0.14 % (wv'w) up to 95% relative humidity, indicative that pomalidomide Form A is not hygroscopic. […] At the end of desorption, the sample lost all of the weight it gained during the process of moisture sorption. […] The X-ray powder diffractograms are shown in Figure 25 and Figure 26 of WO2013/126326. […] The physical properties of the exposed form A were unchanged as compared to at the start of the study. Form A also appeared to be stable in acetone, acetonitrile, ethanol, ethyl acetate, methyl ethyl ketone, THF, toluene, ethanoi-water (1 : 1) or water at 40°C for at least 4 weeks. Compression Test: A compression test for Form A was carried out by applying 2000-psi pressure to the sample for 1 minute and then analyzing the sample by XRPD. […] Particle Size Distribution: In some embodiments, Form A was prepared as a white, irregular plate crystalline with a particle size D90 < 12 ? . Particle size distribution was determined for various lots of pomalidomide. Table 15: Particle Size Data for Pomalidomide Lots
# [5] = Compression test of pomalidomide Form A; type: physicochemical; conditions: 2000-psi pressure for 1 minute
# Experimental: as §2
# [6] = Hygroscopicity of pomalidomide Form A (DVS); type: physicochemical
# Experimental: Pomalidomide Polymorph Preparations: A weighed sample of pomalidomide (about 100 mg) was treated with 2 mL of a test solvent. The solvents used were either reagent or HPLC grade. The resulting mixture was agitated for at least 24 hours at 25°C. When all of the solids were dissolved by visual inspection, the estimated solubilities were calculated. The solubility was estimated from these experiments based on the total volume of solvent used to give a solution. The actual solubility may be greater than those calculated due to the use of a large amount of solvent or to a slow rate of dissolution. […] A known volume of filtrate was evaporated to dryness and the weight of the residue was measured. Equilibration and evaporation experiments were carried out by adding an excess of pomalidomide to 4 mL of a test solvent. The resulting mixture was agitated for at least 24 hours at 25°C and 50°C separately. […] All of the samples generated as described in the polymorph preparation study were analyzed by XRPD. […] Diffracted radiation was detected by peitier-cooled Si(Li) solid state detector. […] Approximately 2-5 mg of sample was placed into a DSC pan and the weight was accurately recorded. […] Hygroscopicity was determined on a Surface Measurement Systems DVS. Typically a sample size of 10-50 mg was loaded into the DVS instrument sample pan and the sample was analyzed on a DVS automated sorption analyzer at 25°C. […]
# [7] = Solvent System Acetonitrile/H2O
compound,measurement,setting,value
"CC(C)(C)c1cc(C(C)(C)C)c(NC(=O)c2c[nH]c3ccccc3c2=O)cc1O [Compound (VII), N-[2,4-bis(1,1-dimethylethyl)-5-hydroxyphenyl]-1,4-dihydro-4-oxoquinoline-3-carboxamide]",Solvent Evaporation,[1]; [7],Form F
same,Solvent Evaporation,[1]; Solvent System IPAc,Form G Semi-crystalline
same,Solvent Evaporation,[1]; Solvent System IPAc/H2O,Form H
same,Solvent Evaporation,[1]; Solvent System MEK,Form I
same,Solvent Evaporation,[1]; Solvent System MEK/H2O (80:20),Form E
same,Solvent Evaporation,[1]; Solvent System MEK/H2O (90:10),Form E
same,Solvent Evaporation,[1]; Solvent System MEK/H2O (99:1),Form J
same,Solvent Evaporation,[1]; Solvent System Water,not soluble
same,Antisolvent Addition,[2]; Solvent System IPAc/H2O,Form T
same,Antisolvent Addition,[2]; Solvent System MEK,Form K
same,Antisolvent Addition,[2]; Solvent System MEK/H2O (80:20),Form K
same,Antisolvent Addition,[2]; Solvent System MEK/H2O (90:10),Form K
same,Antisolvent Addition,[2]; Solvent System MEK/H2O (99:1),Form K
same,Antisolvent Addition,[2]; Solvent System Water,not soluble
same,% Activity,AF508-CFTR,"++ (""++"" means between 25% to 100%)"
same,Solvate Polymorph,[3]; Solvent System Acetonitrile,Form D
same,Solvate Polymorph,[3]; [7],Form D
same,Solvate Polymorph,[3]; Solvent System MEK,Form E
same,Solvate Polymorph,[3]; Solvent System MEK/H2O (80:20),Form E
same,Solvate Polymorph,[3]; Solvent System MEK/H2O (90:10),Form E
same,Solvate Polymorph,[3]; Solvent System MEK/H2O (99:1),Form E
same,Solvate Polymorph,[3]; Solvent System Water,not soluble
"Nc1cccc2c1C(=O)N(C1CCC(=O)NC1=O)C2=O (stereo not drawn) [pomalidomide Form A, 4-amino-2-(2,6-dioxopiperidine-3-yl)isoindoline-1,3-dione]",physical properties after exposure,[4]; 40°C/75% RH environment for four weeks,unchanged
same,time stable in solvent,"[4]; acetone, acetonitrile, ethanol, ethyl acetate, methyl ethyl ketone, THF, toluene, ethanol-water (1:1) or water at 40°C",at least 4 weeks
same,XRPD pattern after compression,[5],unchanged
same,mass change over the dry mass,"[6]; relative humidity increased from 0 to 95%, another study",less than 0.11%
same,moisture uptake,"[6]; up to 95% relative humidity, one study",less than 0.14 % (wv'w)
